From patent publication US11905518B2, “Small auxin upregulated (SAUR) gene for the improvement of root system architecture, waterlogging tolerance, drought resistance and yield in plants and methods of uses” (Curators of the University of Missouri, priority 2018, dated 2024)

Tested on: NILs (NIL147_aa and NIL147_AA)
Assay: Waterlogging treatment of NILs with auxin biosynthesis inhibitor PCIB
Type: in vivo, soybean
Method: FIGS. 7A-7C depict involvement of auxin in the regulation of waterlogging tolerance. Complementation of qWL_Gm03 by auxin biosynthesis inhibitor in waterlogging tolerance (FIG. 7A) and induction of adventitious roots (FIG. 7B). The two lines were waterlogging treated for 10 days using water (control) and 10 μM p-Chlorophen-oxyisobutyric acid (PCIB: an auxin biosynthesis inhibitor). Then plants were allowed to recover for 7 days (left) before evaluation for flooding injury scores and adventitious root rating. Data shown are means±standard deviations of 9 biological replicates (soil pots) and each replicate contains 2 to 3 plants. Student's-t-test was used to compare means between NIL147_aa and NIL147_AA. FIG. 7C Expression of GmARF20 in the roots during waterlogging treatment. GmARF20 in soybean is the closest homologue of AtARF19 in Arabidopsis (Ha et al. 2013). Data shown are means±standard deviations of two biological replicates and each replicate contains 10 plants.
Waterlogging test were performed in both field and greenhouse. Field tests for RIL populations and fine-mapping were conducted at the Lee Farm at the DRC in Portageville, MO The evaluation of NILs were performed at four locations, including DRC (MO), Rhower Research Station (AR), Delta Research and Extension Center (MS) and Red River Research Station (LA). The soil types of the four locations were Sharkey clay (very fine, smectitic, thermic Chromic Epiaquerts). Each lines were planted in hill plots at a density of 8 seeds per plot with 1 meter spacing with 2 to 3 replications. Waterlogging treatments were imposed by flood irrigation. Water was pumped on the field when 80% of the lines within each maturity block were at the R1 growth stage (Fehr and Caviness 1977). […]
Auxin generally promotes root initiation and elongation (reviewed by Overvoorde et al. 2010). Therefore, the involvement of auxin in waterlogging tolerance was further evaluated by the treatment of an auxin biosynthesis inhibitor: p-Chlorophen-oxyisobutyric acid (PCIB) on the NILs (NIL147_aa and NIL147_AA) during waterlogging. […]

[1] = 10 μM PCIB vs water control, waterlogging treated for 10 days, 7 days recovery, NIL147_aa and NIL147_AA

## CC(C)(Oc1ccc(Cl)cc1)C(=O)O [PCIB, p-Chlorophen-oxyisobutyric acid]
10 μM PCIB during waterlogging, NIL147_aa vs NIL147_AA
  genotypic differences of qWL_Gm03 in waterlogging tolerance performance and formation of adventitious/aerial roots: complement the genotypic differences
[1]
  formation of adventitious/aerial roots (adventitious root rating): significantly impair
  waterlogging tolerance (flooding injury scores): significantly impair
